Measured values from patent publication US20250019379A1, “NEW CRYSTAL FORM OF COMPOUND, AND PREPARATION METHOD THEREFOR AND USE THEREOF” (E-nitiate Biopharmaceuticals (Hangzhou) Co., Ltd, priority 2021, published 2025).
Each block holds one compound with its values, some of them ahead of it.

Experiments:
Format in all cases: physicochemical
[1] = Thermodynamic analysis experiment (heating, XRPD)
Description: Crystalline form H and crystalline form S were heated to appropriate temperatures under N2 protection, and after cooling to room temperature, the XRPD of the solids was measured.

[2] = Influencing factors test (light, high temperature, high humidity); conditions: 5000Lx light, 60° C., 90% RH±5% RH; 0, 5, 10, 30 days
Description: The stability of the crystalline form of the present invention under accelerated test conditions was determined. […] Stability testing was conducted under the following conditions, and samples were taken on the 0th day, the 5th day, the 10th day and the 30th day. The content, total impurities, and XRPD patterns of the samples were recorded and compared with the initial data.

[3] = Crystal form stability test
Description: The crystalline form M was stored at a temperature of 25° C. and a humidity of 55% RH for 35 days, and the XRPD of the solid was tested.

[4] = Dynamic solubility in biological solvents at 37° C.; conditions: 37° C.
Description: (1) Preparation method of FaSSIF: a. Weigh 42 mg NaOH, 395 mg NaH2PO4·H2O and 619 mg NaCl in a 100 mL beaker, add 90 mL deionized water to dissolve: b. Adjust the pH to […]; Dilute to 100 mL with deionized water to obtain FaSSIF blank solvent: c. Weigh 224 mg of Simulated Intestinal Fluid (hereinafter referred to as SIF powder), add 50 mL of the above FaSSIF blank solvent, and stir until completely dissolved; use Dilute the FaSSIF blank solvent to 100 mL to prepare the solvent FaSSIF; d. Let it stand at room temperature for 2 hours before use.
(2) Preparation method of FeSSIF: a. Weigh 404 mg NaOH, 865 mg glacial acetic acid and 1189 mg NaCl in a 100 mL beaker, add 90 mL deionized water to dissolve: b. Adjust the pH to 5.0 with 1N NaOH or 1N HCl; Dilute to 100 mL with deionized water to obtain FeSSIF blank solvent; c. Weigh 1120 mg SIF powder and add 50 mL of the above FeSSIF blank solvent, stir until dissolved: dilute to 100 mL with FeSSIF blank solvent to obtain FeSSIF solvent d. Let it stand at room temperature before use to ensure a clear solution.
(3) Preparation method of SGF: a. Weigh 200 mg NaCl in a 100 mL beaker, add 90 mL deionized water to dissolve; b. Adjust the pH to 1.6 with 1N HCl; dilute to 100 mL with deionized water to obtain SGF Blank solvent; c. Weigh 6 mg SIF powder and add 50 mL of the above SGF blank solvent, stir until dissolved: dilute to 100 mL with SGF blank solvent to prepare the solvent SGF: d. Let it stand at room temperature before use to ensure a clear solution.
(100 rpm). Take 1.3 mL of the suspension (or clarified solution) respectively at 1, 4, and 24 hours, and centrifuge the suspension for 5 minutes. The solid obtained is used for crystal form detection (XRPD), and the supernatant/clarified solution is filtered for solubility testing and pH test.
Solubility data of the samples were collected using a high-performance liquid chromatograph equipped with an image diode array detector.

[5] = Solid state stability (HPLC purity, XRPD); conditions: for Purity (%): open
Description: Purity testing (via HPLC) and crystal form detection (via XRPD) were performed on starting samples, samples stored for one week, and samples stored for two weeks.

stability under accelerated test conditions (content, total impurities, XRPD) [2]: better stability
SMILES: C[C@@H](O)c1nc2cnc3[nH]ccc3c2n1N1CCC(CC#N)CC1 [Crystalline form H, (R)-2-(1-(2-(1-hydroxyethyl)imidazo[4,5-d]pyrrolo[2,3-b]pyridine-1(6H)-yl)piperidin-4-yl)acetonitrile]
crystal form after heating (XRPD) ([1]; heated to 162° C. under N2, cooled to room temperature): partially converted into crystalline form A
crystal form after heating (XRPD) ([1]; heated to 210° C. under N2, cooled to room temperature): completely converted into crystalline form A

stability under ambient temperature and humidity [3]: unstable
crystal form after storage (XRPD) ([3]; 25° C., 55% RH, 35 days): transformed into the crystalline form A
SMILES: C[C@@H](O)c1nc2cnc3[nH]ccc3c2n1N1CCC(CC#N)CC1 [Crystalline form M, (R)-2-(1-(2-(1-hydroxyethyl)imidazo[4,5-d]pyrrolo[2,3-b]pyridine-1(6H)-yl)piperidin-4-yl)acetonitrile]

Changes in Crystal form ([4]; FaSSIF, 1 h): no change
pH ([4]; FaSSIF, 1 h): 6.45
pH ([4]; FaSSIF, 4 h): 6.40
Changes in Crystal form ([4]; FaSSIF, 24 h): no change
pH ([4]; FaSSIF, 24 h): 6.49
pH ([4]; FeSSIF, 1 h): 4.96
pH ([4]; FeSSIF, 4 h): 4.98
Changes in Crystal form ([4]; FeSSIF, 24 h): no change
pH ([4]; FeSSIF, 24 h): 5.00
Changes in Crystal form ([4]; SGF, 1 h): no change
pH ([4]; SGF, 1 h): 2.60
pH ([4]; SGF, 4 h): 2.98
Changes in Crystal form ([4]; SGF, 24 h): no change
pH ([4]; SGF, 24 h): 2.71
crystal form stability when suspended and stirred ([4]; SGF/FeSSIF/FeSSIF, 24 hours): stable
solid-state stability (conclusion) [5]: good solid-state stability
Purity (%) ([5]; 1 week, 25° C./60% RH): 99.80%
Purity (%) ([5]; 1 week, 40° C./75% RH): 99.93%
Purity (%) ([5]; 1 week, 60° C.): 99.91%
Crystal form changes ([5]; 1 week, 25° C./60% RH, 40° C./75% RH, 60° C.): no change
Purity (%) ([5]; 2 week, 25° C./60% RH): 99.87%
Purity (%) ([5]; 2 week, 40° C./75% RH): 99.87%
Purity (%) ([5]; 2 week, 60° C.): 99.92%
Crystal form changes ([5]; 2 week, 25° C./60% RH, 40° C./75% RH, 60° C.): no change
change in the crystalline form (XRPD) ([5]; after one week and two weeks of storage under the selected conditions): no change
change in purity ([5]; after one week and two weeks under the selected conditions): no significant change
Starting sample Purity (%) ([5]; starting sample): 99.87%
stability under accelerated test conditions (content, total impurities, XRPD) [2]: better stability
SMILES: C[C@@H](O)c1nc2cnc3[nH]ccc3c2n1N1CCC(CC#N)CC1 [Crystalline form Q, (R)-2-(1-(2-(1-hydroxyethyl)imidazo[4,5-d]pyrrolo[2,3-b]pyridine-1(6H)-yl)piperidin-4-yl)acetonitrile]

crystal form after heating (XRPD) ([1]; heated to 215° C. under N2, cooled to room temperature): converted into crystalline form A
SMILES: C[C@@H](O)c1nc2cnc3[nH]ccc3c2n1N1CCC(CC#N)CC1 [Crystalline form S, (R)-2-(1-(2-(1-hydroxyethyl)imidazo[4,5-d]pyrrolo[2,3-b]pyridine-1(6H)-yl)piperidin-4-yl)acetonitrile]
